From ChEMBL document CHEMBL1145759, “Selective phenolic acylation of 10-hydroxycamptothecin using poly (ethylene glycol) carboxylic acid” (Bioorg Med Chem Lett, 2003)

What was measured:
[1] = tested on: P388; assay: Inhibitory activity against P388 Leukemia cells; format: functional, cell-based; settings: Mus musculus
[2] = tested on: Mus musculus; assay: Inhibition of human colon tumor (LS174T) xenograft in nude mice; format: functional
[3] = Half life measured in rat plasma; format: ADME
[4] = Half life measured in PBS; format: ADME
[5] = tested on: P388; assay: Inhibitory activity against P388/0 Leukemia cells; format: functional, cell-based; settings: Mus musculus

| Compound | IC50 [1] | Inhibition [2] | half-life [3] | half-life [4] | IC50 [5] |
| --- | --- | --- | --- | --- | --- |
| CC[C@@]1(O)C(=O)OCc2c1cc1n(c2=O)Cc2cc3ccccc3nc2-1 [CAMPTOTHECIN] | 7 nM | 4.9% | – | – | – |
| CC[C@@]1(O)C(=O)OCc2c1cc1n(c2=O)Cc2cc3cc(OC(=O)COCCO)ccc3nc2-1 | – | 57.6% | 7.2 min | 5 h | 55 nM |
| CC[C@@]1(O)C(=O)OCc2c1cc1n(c2=O)Cc2cc3cc(O)ccc3nc2-1 [HYDROXYCAMPTOTHECIN] | 12 nM | 36.5% | – | – | – |
